“Also recorded” adds a separate entry of the source. Ends that are not written are not given here.
What was measured:
[1] = MTP solubility in PBS and PBS/LDS; assay type: physicochemical
Method: The solubility of the MTPs was tested either in phosphate buffered saline (PBS) or in a mixture of PBS and lithium dodecyl sulfate (LDS).

[2] = target: T1, NRP1-PlexinA1 interaction (Mus musculus, UniProt P70206); assay: Proximity ligation assay of Neuropilin-1/Plexin-A1 receptor dimers in Oli-neu cells; assay type: cell-based; settings: for Normalized interactions Nrp1-PlexinA1/cell: Oli-neu cells treated with peptides at 10^−7 M, vehicle 100; for reduction of the number of NRP1/PlexinA1 interactions: 10^−7 M
T1 construct: endogenous in cells; host or cells: Oli-neu cells
Method: After fixation with 1% PFA for 10 min, slices were permeabilized with PBS/0.1% Triton X-100. Primary antibodies (NRP1 from Evitria, 1:500; and Plexin-A1 from Abcam, ab23391, 1:200) were incubated overnight at 4° C. in PBS. The proximity ligation assay allowing to visualize receptor dimers (Neuropilin-1/Plexin-A1) was then performed according to the manufacturer's recommendations with the “detection orange” kit (Sigma). Quantification of the interactions (fluorescent dots at the cell surface) was performed using ImageJ software.

[3] = system: oligodendrocyte cell line Oli-neu; assay: Cell migration assay (Transwell CIM-Plate, xCELLigence), rescue of Sema3A negative effect; assay type: cell-based; settings: 20 ng/ml Sema3A
Method: Cells were pre-incubated 1 h with vehicle alone or MTP. The 1×10^5 cells were seeded in the upper chamber with 150 μl of medium. The bottom well contained 160 μl of medium supplemented with 2% fetal bovine serum for chemoattraction and 20 ng/ml Sema3A (Recombinant Mouse Semaphorin 3A Fc Chimera Protein Carrier Free ref: 5926-S3/CF; RnD Systems) for repulsion. Analysis was performed after 8 h of migration according to the manufacturer's instructions. Data are expressed as a percentage of positive control migration, i.e. the migration of Oli-neu with 2% serum and without Sema3A.

[4] = system: cuprizone-induced demyelination; settings: mouse, in vivo
Method: It was next assessed whether […] can induce remyelination of the CNS and motor function recovery following demyelination induced by cuprizone, a copper-chelating agent, in a mouse model. Oral intoxication with cuprizone induces oligodendrocyte apoptosis within a few days, which is closely followed by the activation of the innate immune cells in the brain, i.e., astrocytes and microglia, finally leading to demyelination of distinct white and grey matter brain areas. […] (10 μg/kg) for 6 consecutive days (n=10) • (e) 5 weeks cuprizone, followed by treatment with […] (100 μg/kg) for 6 consecutive days (n=10) • (f) 5 weeks cuprizone, followed by treatment with vehicle for 11 consecutive days (n=10) • (g) 5 weeks cuprizone, followed by treatment with […] (10 μg/kg) for 11 consecutive days (n=10) • (h) 5 weeks cuprizone, followed by treatment with […] (100 μg/kg) for 11 consecutive days (n=10) Acute demyelination was induced by intoxicating for five consecutive weeks 8-week-old (19-21 g) male mice a diet containing 0.25% cuprizone [bis(cyclohexanone)oxaldihydrazone; Sigma-Aldrich Inc., St Louis, MO, USA] mixed into a ground standard rodent chow. […]

[5] = target: Plexin-A1 (on Oli-neu cells) (UniProt P70206); assay: proximity ligation assay on Oli-neu cells, peptide at 10^-7 M for 1 h; NRP1/Plexin-A1 dimers counted
[6] = target: Plexin-A1 (on Oli-neu cells) (UniProt P70206); assay: proximity ligation assay on Oli-neu cells, dose response; inhibition of NRP1/Plexin-A1 interactions
[7] = Solubilization vehicle PBS 100%

Row | Molecule | Measured concentration [1, 7] | Normalized interactions Nrp1-PlexinA1/cell [2] | Normalized interactions Nrp1-PlexinA1/cell (normalized to vehicle = 100) [5] | also measured
1 | TLPAIGVITLVGLGVLELVAEGVYEEEEE [HODR, reference compound] | 189 µM | – | – | –
2 | TLPAITGLVGGVGLLLEVIVEVAYEEEEE [GUNGNIR] | 248 µM | 40.4 | – | reduction of the number of NRP1/PlexinA1 interactions ([2]; Oli-neu cells): −60%; IC50 ([3]; n=3): 1.2 nM; body weight [4]: no differences were observed; percentage loss of body weight relative to vehicle-treated groups [4]: significantly less pronounced
3 | TLPAIVGIGGGGGELLLVIVEVLIYEEEEE [RATI] | 224 µM | – | – | –
4 | TLPAIVGIGGGGGLLLEVIVEVLIAYEEEEE [DRAUPNIR] | 260 µM | – | – | –
5 | TLPAIVGIGGGGGLLLLVIVAVLIAYKRK [MTP-PlexA1, reference compound] | 0 µM | – | – | Measured concentration ([1]; Solubilization vehicle PBS 100% LDS 72 mM): 360 µM
6 | TLPAIVSIGGGVVLLLEVIVEVAYEEEEE [MIMMING] | – | 49.4 | – | reduction of the number of NRP1/PlexinA1 interactions ([2]; Oli-neu cells): −51%; IC50 ([2]; Oli-neu cells, dose response, read-out: IC50, number of NRP1/PlexinA1 interactions): 17 nM; rescue of Sema3A negative effect on migration ([3]; 8 h of migration): able to counteract; also recorded: rescue migration
7 | TLPVIGVIVLVGSAVLELIAEGVYEEEEE [SURTR, reference compound] | – | 96.8 | – | –
8 | TLPAITGLVGGVGLLLEVIVEVAYEEEEE [GUNGNIR] | – | – | 40.4 | IC50 [6]: 0.074 nM
9 | TLPAIVSIGGGVVLLLEVIVEVAYEEEEE [MIMMING] | – | – | 49.4 | –
10 | TLPVIGVIVLVGSAVLELIAEGVYEEEEE [SURTR] | – | – | 96.8 | –
